# pEC50, pIC50: −log10 of the molar value.
# What was measured:
# Format in all cases: cell-based
# [1] = test system: HT29 colon cancer line; test: miRNA library screen for enhancement of 17-AAG apoptotic activity (Apo-ONE caspase); settings: HT29, miRNA transfected 48 hours, then 17-AAG 48 hours, both 1:800 and 1:3200 dilutions of 17-AAG
# Description: In order to observe an enhancement of activity in 17-AAG, a miRNA library of 470 Pre-miRNA precursors have been transfected (Ambion, siPORT NeoFx transfection agent) in to the HT29 colon cancer line and followed by 17-AAG treatment. Synthetic ds-miRNAs from the miRNA library were transfected into HT29 cells and incubated for 48 hours at 37° C. Various concentrations of 17-AAG were added to miRNA transfected HT29 cells and incubated for another 48 hours. 100 uL of media was aspirated from each well. Apo-One caspase reagent was prepared by diluting the substrate in buffer in a 1:100 concentration. 100 uL of the reagent was added to each well. Plates were incubated at room temperature for 6 hours. The apoptotic activity was measured by the Fluoroskan plate reader. […] Molecules that synergized at both 1:800 and 1:3200 dilutions of 17-AAG were miR-145, miR-454-3p, miR519a, miR-520c, and miR-520d (SEQ ID NOS:1-5), (FIG. 5, dark background, respectively).
# [2] = test system: HT29 cells; test: miRNA concentration dependency of 17-AAG synergy; settings: 17-AAG 3.125 ug/ml, miRNA 60, 30, 15, 7.5 nM
# Description: To confirm the activity shown in Example 6, the experiment was repeated with constant amount of 17-AAG (3.125 ug/ml) and increasing amount of miRNAs (60, 30, 15, 7.5 nM) used for transfection. […] There were two distinct classes of miRNAs according to activity (one class with high activity: miR454 (SEQ ID NO:2), miR-520c (SEQ ID NO:4) and miR-520d (SEQ ID NO:5); one class with low activity: miR-145 (SEQ ID NO:1) and miR-519a (SEQ ID NO:3)).
# [3] = test system: HT29 cells; test: miRNA enhancement of oxaliplatin or paclitaxel apoptosis (Apo-ONE Caspase-3/7 Assay); settings: HT29, miRNA 30 nM 48 hours; for Level of apoptosis in oxaliplatin treated cells expressing exogenous miRNA: then 15.6 μg/ml oxaliplatin 48 hours; for Level of apoptosis in paclitaxel treated cells expressing exogenous miRNA: then 7.8 μg/ml paclitaxel 48 hours
# Description: A transfection medium was made up by diluting siPORT NeoFx (0.3 μl/well) in OPTI-MEM (16.7 ul/well) in the wells of a microtiter plate and this medium was incubated for 10 minutes at room temperature. A pre-miRNA library was diluted to 1 μM and […] of miRNA was added to each well (30 nM). This mixture was incubated at room temperature for another 10 minutes. HT29 cells were then added at 30,000 cells/well and the plates were incubated 48 hours 37° C.
# For treatment with candidate therapeutic agents, the media was aspirated from each well and 200 μl/well of 15.6 μg/ml oxaliplatin, 7.8 μg/ml paclitaxel or negative control solution was added. The plates were incubated for 48 hours 37° C. The Apo-ONE® Homogeneous Caspase-3/7 Assay (Promega, Madison, Wis., USA) was performed on the treated cells. The reactions were performed in duplicate.
# [4] = test system: HT29 cells; test: Apoptotic activity of 17-AAG combined with anticancer agents (Apo-ONE kit); settings: three days after drug treatment
# Description: A panel of anticancer chemotherapeutical agents was tested for the enhancement of apoptotic activity with 17-AAG (using the same apoptotic assay system in Example 1), FIG. 4. HT29 cells were treated with various concentration of 17-AGG in the presence or absence of anticancer agents including known HSP70 promoter inducers. Three days after the drug treatment, the apoptotic activity was measured by the Apo-ONE kit (see above). When combined with the anticancer agents, including HSP70 inducers (such as Cisplatin, Etoposide, Doxorubicin, Velcade, Dimethylenastron). […] Some inhibition was also observed for other inducers of HSP70.
# [5] = test system: colon cancer line HT29; test: Apo-ONE Homogeneous Caspase-3/7 assay of 17-AAG apoptotic activity; settings: HT29 cells, 72 hours at 37° C., Caspase-3/7 activity
# Text: The Apo-ONE® Homogeneous Caspase-3/7 Assay (Promega, Madison, Wis.) uses a proprietary lysis/activity buffer, in conjunction with the (Z-DEVD)2-Rhodamine 110 substrate, enables a simple “add-mix-read” format for the detection of caspase-3 and -7 in adherent, suspension, and primary culture cells, or in purified caspase preparations. The assay uses a rhodamine 110-based substrate allows for exquisite sensitivity previously unobtainable with conventional colorimetric or fluorometric assays.
# Specifically, 100 μl of Apo-ONE® Caspase-3/7 Reagent was added to each well of a white or black 96-well plate containing 100 μl of blank, control or cells in culture. The plate was covered with a plate sealer for incubating for extended periods (>4 hours). In order to perform this assay in a 384-well plate, a 1:1 volume ratio of Apo-ONE® Caspase-3/7 Reagent to sample was used. The contents of wells were mixed using a plate shaker at 300-500 rpm from 30 seconds and incubated at room temperature for 6 hours. The fluorescence of each well was determined at 485/538 nm (a measure of apoptosis, with the higher ratio indicating more apoptosis).
# The apoptotic activity of 17-AAG (17-(Allylamino)-17-demethoxygeldanamycin) was determined in the colon cancer line HT29 using an assay for Caspase-3/7 activity (Apo-ONE kit, Promega). 17-AAG-treated HT29 cells were compared with DMSO-treated control (FIG. 1). […]
# [6] = test system: Her2; test: Her2 suppression assay (anti-Her2 immunostaining, absorbance at 405 nm); settings: BT474 cells, 24-hours treatment
# Description: Ten thousand BT474 cells per well were seeded into a microtiter plate and grown for 48 hours. After this preincubation, the BT474 cells treated with various concentrations of 17-AAG and its analogs for 24-hours. At the end of this incubation the media was removed from each well, each well was washed twice with ice-cold Tris buffer saline (containing 0.1% Tween 20) and the cells were fixed with Methanol (ice-cold) at […] for 10 minutes. The fixed BT474 cells were immunostained with anti-Her2 antibody. The presence of Her2 protein was determined by measurement of the absorbance at 405 nm in the plate reader.
# [7] = test system: Her2; test: Confocal imaging of Her2 internalization and degradation; settings: BT474 cells, concentration of IC50, 24 hours, confocal image
# Description: 17-AAG treated BT474 cells were examined by the confocal images system. BT474 cells were seeded on the slide and treated at the concentration of IC50 for 24 hours. 17AAG-treated and control BT474 cells were fixed with Methanol, stained with Her2 antibody and analyzed by the confocal image.
Compound,Synergy with 17-AAG in apoptotic reading [1],Class of activity in synergy with 17-AAG [2],Level of apoptosis in paclitaxel treated cells expressing exogenous miRNA [3],also measured
"miR-454-3p: miRNA UAGUGCAAUAUUGCUUAUAGGGUUU (SEQ ID NO:2) (listed as RNA, chemistry not given here; listed as Homo sapiens)",synergized,high activity,,Level of apoptosis in oxaliplatin treated cells expressing exogenous miRNA [3]: highest level of apoptosis
"miR-520d: miRNA AAAGUGCUUCUCUUUGGUGGGUU (SEQ ID NO:5) (listed as RNA, chemistry not given here; listed as Homo sapiens)",synergized,high activity,,Level of apoptosis in oxaliplatin treated cells expressing exogenous miRNA [3]: highest level of apoptosis
CC(C)C[C@H](NC(=O)[C@H](Cc1ccccc1)NC(=O)c1cnccn1)B(O)O [Velcade],,,,Effect of the added anticancer agent on apoptotic activity of 17-AAG [4]: strongly inhibited
"miR-520c: miRNA AAAGUGCUUCCUUUUAGAGGGUU (SEQ ID NO:4) (listed as RNA, chemistry not given here; listed as Homo sapiens)",synergized,high activity,,Level of apoptosis in oxaliplatin treated cells expressing exogenous miRNA [3]: highest level of apoptosis
"mir 495: miRNA AAACAAACAUGGUGCACUUCUUU (SEQ ID NO:7) (listed as RNA, chemistry not given here; listed as Homo sapiens)",,,highest levels of apoptosis,
"C=CCNC1=C2C[C@@H](C)C[C@H](OC)[C@H](O)[C@@H](C)/C=C(\C)[C@H](OC(N)=O)[C@@H](OC)/C=C\C=C(/C)C(=O)NC(=CC1=O)C2=O [17-AAG, 17-(Allylamino)-17-demethoxygeldanamycin]",,,,EC50 of apoptosis induction [5]: 0.07 µg/mL; pEC50 ([5]; read-out: EC50 of apoptosis induction): 6.92; pIC50 [6]: ~7.49; Her2 protein expression and localization after treatment [7]: eliminated from its cell surface sub-localization to cytoplasm
"miR-145: miRNA GUCCAGUUUUCCCAGGAAUCCCUU (SEQ ID NO:1) (listed as RNA, chemistry not given here; listed as Homo sapiens)",synergized,low activity,,
"mir 661: miRNA UGCCUGGGUCUCUGGCCUGCGCGU (SEQ ID NO:9) (listed as RNA, chemistry not given here; listed as Homo sapiens)",,,highest levels of apoptosis,
"miR519a: miRNA AAAGUGCAUCCUUUUAGAGUGUUAC (SEQ ID NO:3) (listed as RNA, chemistry not given here; listed as Homo sapiens)",synergized,low activity,,
"mir 425-3p: miRNA AUCGGGAAUGUCGUGUCCGCC (SEQ ID NO:6) (AUCGGGAAUGUCGUGUCCGCCC; listed as RNA, chemistry not given here; listed as Homo sapiens)",,,highest levels of apoptosis,
"mir 572: miRNA GUCCGCUCGGCGGUGGCCCA (SEQ ID NO:8) (listed as RNA, chemistry not given here; listed as Homo sapiens)",,,highest levels of apoptosis,
